Data taken from the NIST ThermoML archive (doi:10.1021/je900570e).
± gives the expanded uncertainty stated by the source.

Test: xn = mol fraction of the nth substance listed
Conditions: Liquid; for viscosity / speed of sound: 101 kPa; for viscosity: Capillary tube (Ostwald / Ubbelohde) method; for speed of sound: Frequency=2 MHz, Pulse-echo method; for mass density: 101.33 kPa, Vibrating tube method

N#CCc1ccccc1 [benzeneacetonitrile] + ClC(Cl)C(Cl)Cl
Conditions | mass density, 303.15 K [kg/m3] | mass density, 308.15 K [kg/m3] | mass density, 313.15 K [kg/m3] | speed of sound, 303.15 K [m/s] | speed of sound, 308.15 K [m/s] | speed of sound, 313.15 K [m/s] | viscosity, 303.15 K [mPa·s] | viscosity, 308.15 K [mPa·s] | viscosity, 313.15 K [mPa·s]
x1 = 0.0221 | 1566.5 ± 1.4 | 1558.5 ± 1.4 | 1551.7 ± 1.4 | 1142 ± 7 | 1125 ± 6.9 | 1107.4 ± 6.8 | 1.489 ± 0.018 | 1.376 ± 0.017 | 1.277 ± 0.016
x1 = 0.1374 | 1497.2 ± 1.3 | 1490.1 ± 1.3 | 1483.5 ± 1.3 | 1179.7 ± 7.3 | 1166.3 ± 7.2 | 1154.6 ± 7.1 | 1.661 ± 0.019 | 1.528 ± 0.018 | 1.413 ± 0.017
x1 = 0.2564 | 1426.9 ± 1.3 | 1420 ± 1.3 | 1413.8 ± 1.3 | 1220.9 ± 7.5 | 1209.3 ± 7.5 | 1201.6 ± 7.4 | 1.838 ± 0.021 | 1.678 ± 0.02 | 1.544 ± 0.019
x1 = 0.3743 | 1358.8 ± 1.2 | 1351.7 ± 1.2 | 1345.9 ± 1.2 | 1263.5 ± 7.8 | 1251.5 ± 7.7 | 1245.6 ± 7.7 | 1.954 ± 0.023 | 1.775 ± 0.021 | 1.63 ± 0.02
x1 = 0.4799 | 1297.2 ± 1.2 | 1291.5 ± 1.2 | 1285.9 ± 1.2 | 1303.1 ± 8 | 1289.9 ± 8 | 1283.9 ± 7.9 | 2.011 ± 0.024 | 1.837 ± 0.022 | 1.674 ± 0.021
x1 = 0.5852 | 1236.4 ± 1.1 | 1231.7 ± 1.1 | 1226.2 ± 1.1 | 1343.4 ± 8.3 | 1329.5 ± 8.2 | 1323.9 ± 8.2 | 2.017 ± 0.024 | 1.832 ± 0.023 | 1.682 ± 0.021
x1 = 0.7131 | 1164.2 ± 1 | 1160.2 ± 1 | 1154.9 ± 1 | 1393.9 ± 8.6 | 1381 ± 8.5 | 1373.2 ± 8.5 | 1.966 ± 0.024 | 1.796 ± 0.023 | 1.645 ± 0.021
x1 = 0.8414 | 1093.9 ± 1 | 1089.9 ± 1 | 1085 ± 0.9 | 1446.4 ± 8.9 | 1436.5 ± 8.9 | 1426.2 ± 8.8 | 1.894 ± 0.024 | 1.725 ± 0.022 | 1.597 ± 0.021
x1 = 0.9748 | 1022.5 ± 0.9 | 1018.2 ± 0.9 | 1013.5 ± 0.9 | 1504.3 ± 9.3 | 1497.2 ± 9.2 | 1487.4 ± 9.2 | 1.772 ± 0.023 | 1.617 ± 0.022 | 1.503 ± 0.02
x1 = 1 | 1008.8 ± 0.9 | 1004.1 ± 0.8 | 999.5 ± 0.8 | 1519.2 ± 9.4 | 1512.9 ± 9.3 | 1503.4 ± 9.3 | 1.761 ± 0.023 | 1.602 ± 0.021 | 1.489 ± 0.02
